Laboratory results from ChEMBL document CHEMBL1122707, “Pyrroloisoquinoline antidepressants. Potent, enantioselective inhibition of tetrabenazine-induced ptosis and neuronal uptake of norepinephrine, dopamine, and serotonin” (J Med Chem, 1984).
pKi: −log10 of the molar value.

How the values were obtained:
[1] = molecular target: Norepinephrine transporter (Rattus norvegicus, UniProt Q9WTR4); assay: Inhibition of norepinephrine (NE) into rat brain synaptosomes; assay type: functional, subcellular
Sequence of Norepinephrine transporter (Q9WTR4 whole entry): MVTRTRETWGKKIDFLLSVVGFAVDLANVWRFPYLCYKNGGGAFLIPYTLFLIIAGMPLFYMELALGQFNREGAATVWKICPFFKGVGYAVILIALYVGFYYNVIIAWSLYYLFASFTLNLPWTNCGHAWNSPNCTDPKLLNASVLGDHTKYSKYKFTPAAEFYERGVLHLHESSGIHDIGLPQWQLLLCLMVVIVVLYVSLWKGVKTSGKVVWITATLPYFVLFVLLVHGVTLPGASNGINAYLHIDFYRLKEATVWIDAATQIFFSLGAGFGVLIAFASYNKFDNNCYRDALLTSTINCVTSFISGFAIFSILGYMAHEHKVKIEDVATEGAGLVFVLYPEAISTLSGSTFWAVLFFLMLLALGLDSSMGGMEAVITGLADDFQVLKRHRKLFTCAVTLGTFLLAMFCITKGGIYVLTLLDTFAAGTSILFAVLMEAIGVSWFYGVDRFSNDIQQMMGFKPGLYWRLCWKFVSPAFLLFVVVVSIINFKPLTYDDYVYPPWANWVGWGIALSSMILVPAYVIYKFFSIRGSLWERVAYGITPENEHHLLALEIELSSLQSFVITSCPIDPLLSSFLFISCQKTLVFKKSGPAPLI

[2] = molecular target: Sodium-dependent dopamine transporter (Rattus norvegicus, UniProt P23977); assay: Inhibition of dopamine (DA) uptake into rat brain synaptosomes; assay type: functional, subcellular
Sequence of Sodium-dependent dopamine transporter (P23977 whole entry): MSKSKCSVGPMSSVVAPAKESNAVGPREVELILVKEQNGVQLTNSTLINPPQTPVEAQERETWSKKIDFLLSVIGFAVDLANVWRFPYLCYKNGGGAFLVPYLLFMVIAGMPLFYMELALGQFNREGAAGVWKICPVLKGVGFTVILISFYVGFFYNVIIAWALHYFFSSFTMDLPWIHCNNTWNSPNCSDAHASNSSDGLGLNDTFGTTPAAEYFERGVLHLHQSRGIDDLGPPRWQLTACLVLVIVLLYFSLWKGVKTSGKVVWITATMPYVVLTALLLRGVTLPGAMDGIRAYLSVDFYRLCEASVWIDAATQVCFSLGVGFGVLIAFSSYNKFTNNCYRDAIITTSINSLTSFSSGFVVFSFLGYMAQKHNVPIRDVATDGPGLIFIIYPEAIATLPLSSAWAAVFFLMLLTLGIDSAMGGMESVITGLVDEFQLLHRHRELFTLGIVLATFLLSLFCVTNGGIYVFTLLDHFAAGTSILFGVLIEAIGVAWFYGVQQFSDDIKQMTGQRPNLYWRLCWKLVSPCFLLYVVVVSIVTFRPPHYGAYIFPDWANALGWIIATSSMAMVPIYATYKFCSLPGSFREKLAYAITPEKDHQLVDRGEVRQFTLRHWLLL

[3] = test system: Mus musculus; assay: Inhibition of tetrabenazine (TBZ)-induced ptosis in mice (administered ip); assay type: functional
[4] = test system: Mus musculus; assay: Inhibition of tetrabenazine (TBZ)-induced depression of motor activity (MA) in mice (administered ip); assay type: functional
[5] = molecular target: Sodium-dependent serotonin transporter (Rattus norvegicus, UniProt P31652); assay: Inhibition of serotonin (5-HT) uptake into rat brain synaptosomes; assay type: subcellular
Sequence of Sodium-dependent serotonin transporter (P31652 whole entry): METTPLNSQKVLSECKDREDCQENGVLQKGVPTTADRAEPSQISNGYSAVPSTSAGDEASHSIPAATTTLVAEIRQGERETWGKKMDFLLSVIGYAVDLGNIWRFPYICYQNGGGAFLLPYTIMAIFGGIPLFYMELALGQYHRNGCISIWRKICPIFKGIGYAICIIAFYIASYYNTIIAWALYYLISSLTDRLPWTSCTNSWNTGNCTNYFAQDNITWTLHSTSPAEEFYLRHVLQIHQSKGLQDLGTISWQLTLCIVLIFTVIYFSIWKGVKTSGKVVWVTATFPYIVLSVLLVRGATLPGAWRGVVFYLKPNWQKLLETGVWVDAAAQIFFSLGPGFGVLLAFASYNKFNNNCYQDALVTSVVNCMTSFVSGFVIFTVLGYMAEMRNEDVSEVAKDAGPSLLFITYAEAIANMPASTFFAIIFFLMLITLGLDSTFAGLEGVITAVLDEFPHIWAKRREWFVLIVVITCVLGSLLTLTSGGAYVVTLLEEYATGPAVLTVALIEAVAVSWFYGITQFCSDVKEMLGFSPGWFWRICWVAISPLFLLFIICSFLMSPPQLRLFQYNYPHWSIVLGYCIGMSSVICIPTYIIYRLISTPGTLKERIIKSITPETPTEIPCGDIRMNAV

[6] = test system: Mus musculus; assay: Compound was evaluated for the inhibition of tetrabenazine (TBZ)-induced depression of motor activity (MA) in mice (administered sc); assay type: functional
[7] = test system: Mus musculus; assay: Compound was evaluated for the inhibition of tetrabenazine (TBZ)-induced ptosis in mice (administered sc); assay type: functional
[8] = Mus musculus, ip, read-out: ED50

| pKi [1] | pKi [2] | pKi [5] | SMILES | ED50 [3, 8] | ED50 [4] | ED50 [3] | ED50 [6] | ED50 [7] |
| --- | --- | --- | --- | --- | --- | --- | --- | --- |
| 9.70 | 9.07 | – | Br.Nc1ccc([C@H]2CN3CCC[C@H]3c3ccccc32)cc1 | 0.02 mg/kg | > 1 mg/kg | – | – | – |
| 9.02 | 7.27 | – | Cl.FC(F)(F)c1cccc([C@H]2CN3CCC[C@H]3c3ccccc32)c1 | 0.43 mg/kg | 1.2 mg/kg | – | – | – |
| – | – | – | CN(C)CCCN1c2ccccc2CCc2ccccc21.Cl [IMIPRAMINE HYDROCHLORIDE] | 0.98 mg/kg | 0.58 mg/kg | – | – | – |
| 8.42 | – | – | CN1Cc2c(N)cccc2C(c2ccccc2)C1 (stereo not given) [NOMIFENSINE] | – | – | – | – | – |
| 7.00 | < 7.00 | < 5.30 | Br.c1ccc(C2CN3CCCCCC3c3ccccc32)cc1 (stereo not given) | > 30 mg/kg | 30 mg/kg | – | – | – |
| 9.09 | 8.00 | – | Br.Oc1ccc(C2CN3CCC[C@H]3c3ccccc32)cc1O (stereo not given in full) | 0.11 mg/kg | 0.19 mg/kg | – | – | – |
| 9.13 | 8.29 | – | Br.Oc1ccc(C2CN3CCC[C@H]3c3ccccc32)cc1 (stereo not given in full) | 0.09 mg/kg | 0.4 mg/kg | – | – | – |
| 7.70 | < 6.30 | – | c1ccc(C2CN3CCCCC3c3ccccc32)cc1 (stereo not given) | > 30 mg/kg | > 30 mg/kg | – | – | – |
| – | 7.43 | – | CSc1ccc([C@@H]2CN3CCC[C@H]3c3ccccc32)cc1 | 0.4 mg/kg | > 30 mg/kg | – | – | – |
| – | 8.36 | – | Cl.c1ccc(C2CN3CCC[C@H]3c3ccccc32)cc1 (single isomer, unassigned; (+)) | 0.05 mg/kg | 0.59 mg/kg | – | – | – |
| – | 5.87 | – | Cl.c1ccc([C@H]2CN3CCC[C@H]3c3ccccc32)cc1 (stereo in doubt; (-)-5b) | – | > 30 mg/kg | 8.3 mg/kg | – | – |
| – | – | – | Br.Clc1ccc(C2CN3CCC[C@H]3c3ccccc32)cc1 (stereo not given in full) | 0.34 mg/kg | 0.55 mg/kg | – | – | – |
| – | – | – | CNCCCN1c2ccccc2CCc2ccccc21.Cl [DESIPRAMINE HYDROCHLORIDE] | – | – | – | 0.07 mg/kg | 0.05 mg/kg |
| – | 6.80 | – | Cl.c1ccc([C@H]2CN3CCC[C@H]3c3ccccc32)cc1 (stereo in doubt; 5a) | – | – | >30 mg/kg | – | – |
| < 7.00 | < 6.00 | – | Cl.FC(F)(F)c1cccc([C@@H]2CN3CCC[C@H]3c3ccccc32)c1 | > 60 mg/kg | > 60 mg/kg | – | – | – |
| 8.00 | 7.52 | – | Br.Nc1ccc([C@@H]2CN3CCC[C@H]3c3ccccc32)cc1 | 0.4 mg/kg | 1.4 mg/kg | – | – | – |
| 8.47 | 7.14 | – | Br.COc1ccc(C2CN3CCC[C@H]3c3ccccc32)cc1OC (stereo not given in full) | 0.11 mg/kg | 0.45 mg/kg | – | – | – |
| 8.47 | 7.03 | – | Br.O=[N+]([O-])c1ccc(C2CN3CCC[C@H]3c3ccccc32)cc1 (stereo not given in full) | 0.14 mg/kg | 0.34 mg/kg | – | – | – |
| – | – | – | c1ccc([C@H]2CN3CCC[C@H]3c3ccccc32)cc1 | 0.07 mg/kg | 0.34 mg/kg | – | – | – |
| 9.10 | 8.28 | – | Br.COc1ccc(C2CN3CCC[C@H]3c3ccccc32)cc1 (stereo not given in full) | 0.03 mg/kg | 0.27 mg/kg | – | – | – |

| SMILES | pKi [1] | pKi [2] | pKi [5] | ED50 [3, 8] | ED50 [4] | ED50 [3] | ED50 [6] | ED50 [7] |
| --- | --- | --- | --- | --- | --- | --- | --- | --- |
| COc1ccc2c(c1)CN(C)CC2c1ccc(Cl)c(Cl)c1 (stereo not given) [DICLOFENSINE] | 8.36 | 7.84 | – | – | – | – | – | – |
| Clc1ccc(C2CN3CCC[C@H]3c3ccccc32)cc1Cl (stereo not given in full) | 9.17 | 9.00 | – | 0.14 mg/kg | 0.39 mg/kg | – | – | – |
| CN1CCN2c3ccccc3Cc3ccccc3C2C1 (stereo not given) [MIANSERIN] | 7.59 | < 5.00 | – | 9.7 mg/kg | > 30 mg/kg | – | – | – |
